Target: T1, Tt Pah2 (WT, residues 1-321) (Tetrahymena thermophila, UniProt I7MFJ3)
T1 construct: gene TTHERM_00215970; residues 1-321, codon-optimised, N-terminal His-tag (pET28) kept, E. coli BL21(DE3) RIPL
T1 sequence (I7MFJ3 1-321): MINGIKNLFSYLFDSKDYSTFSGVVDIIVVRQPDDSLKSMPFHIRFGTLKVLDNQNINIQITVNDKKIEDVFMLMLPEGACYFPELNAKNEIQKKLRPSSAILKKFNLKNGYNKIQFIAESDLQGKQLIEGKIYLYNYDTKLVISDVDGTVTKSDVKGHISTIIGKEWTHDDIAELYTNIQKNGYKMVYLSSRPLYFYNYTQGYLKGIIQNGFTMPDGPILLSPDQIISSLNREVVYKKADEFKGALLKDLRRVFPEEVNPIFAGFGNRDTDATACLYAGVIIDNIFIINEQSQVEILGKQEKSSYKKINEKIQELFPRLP
Assay: absorbance at […] nm (p-nitrophenol release)
Assay type: biochemical
Conditions: Mg2+, pH 8, ambient temperature, 56 μM enzyme; very slow turnover

O=[N+]([O-])c1ccc(OP(=O)(O)O)cc1 [pNPP]
absorbance at 405 nm (p-nitrophenol release): we were able to observe detectable pNPP hydrolysis, albeit at a low rate
